These are literature values, as cited in US20250375395A1 (priority 2016, published 2025).

For this series the following is noted: carbonic acid/sodium bicarbonate.

For `O=C([O-])O.[Na+]` [sodium bicarbonate], the pKa is 6.4.
